Measurements published in patent US20260226493A1, “HERBICIDE RESISTANT PLANTS” (SYNGENTA CROP PROTECTION AG, priority 2023, published 2026).
“And” between values parts separate entries of the source, which are not always exact repeats. Equal values may be shown once.

Experiments:
[1] = test system: D4585 (Arabidopsis thaliana BIO3-BIO1 P421L) containing tobacco plants; assay: Visual herbicide damage score on transgenic tobacco D4585 (pCMP AtBioDA P421L); type: in vivo; conditions: 600 gai/ha; 21 DAT; one D4585 transgenic plant
From the text: (§1) Populations of transgenic tobacco comprising 20-30 transgenic events per plant transformation constructs were generated as described in Example 1. These lines were clonally propagated and 1 clone per event was sprayed with 600 g ai/ha compound L or A+0.2% Genapol X080 with a spray volume of 200 L/Ha (“g ai/ha” refers to grams of active compound per hectare).
(§2) Herbicidal damage was visually assessed across the population and a herbicide damage score given at 7, 14 and 21 days. A score of 0 indicates no visible damage or stunting whereas a score of 100 indicates a complete death of the plant. 20 transgenic events (i.e. individual transgenic plants) from each GM tobacco line were transplanted to soil 1 week prior to spraying with BIO3-BIO1inhibiting compounds. WT tobacco was included as a control.
(§3) To determine if overexpression of variants detailed in Example 7 confer resistance to BIO3-BIO1 inhibiting compounds when expressed in plants, GM tobacco lines were produced using the methods in Example 1 and tested with BIO3-BIO1 inhibiting compounds.
(§4) Transgenic tobacco plants expressing the Arabidopsis thaliana BIO3-BIO1 variants C388D (SEQ ID NO:26), P421L(SEQ ID NO:41), F348C (SEQ ID NO:28), G700S (SEQ ID NO:39), W392S (SEQ ID NO:70) and the Zea mays BIO3-BIO1 variant C372D (SEQ ID NO:324). Populations of transgenic tobacco were sprayed and assessed as in Example 2

[2] = test system: D4597 (Arabidopsis thaliana BIO3-BIO1 G700S) containing tobacco plants; assay: Visual herbicide damage score on transgenic tobacco D4597 (pCMP AtBioDA G700S); type: in vivo; conditions: 600 gai/ha; 7 DAT; each table row is one D4597 transgenic plant
From the text: as §1, §2, §3, §4

[3] = test system: D4604 (Arabidopsis thaliana BIO3-BIO1 W392S) containing tobacco plants; assay: Visual herbicide damage score on transgenic tobacco D4604 (pCMP AtBioDA W392S); type: in vivo; conditions: 600 gai/ha, each table row is one D4604 transgenic plant
From the text: as §1, §2, §3, §4

[4] = test system: D4586 (Zea mays BIO3-BIO1 C372D) containing tobacco plants; assay: Visual herbicide damage score on transgenic tobacco D4586 (pCMP ZmBioDA C372D); type: in vivo; conditions: 600 gai/ha; 7 DAT; each table row is one D4586 transgenic plant
From the text: as §1, §2, §3, §4

[5] = biological target: T1, Arabidopsis thaliana BioDA variant enzymes (Arabidopsis thaliana, UniProt B0F481, P421L); assay: biochemical
T1 construct: with the predicted N-terminal mitochondrial transit peptide removed; 6xHis-tag (N); thrombin cleavage site (N); made in house; host or cells: E. coli BL21 (DE3) bioA
T1 sequence (B0F481 24-833 P421L): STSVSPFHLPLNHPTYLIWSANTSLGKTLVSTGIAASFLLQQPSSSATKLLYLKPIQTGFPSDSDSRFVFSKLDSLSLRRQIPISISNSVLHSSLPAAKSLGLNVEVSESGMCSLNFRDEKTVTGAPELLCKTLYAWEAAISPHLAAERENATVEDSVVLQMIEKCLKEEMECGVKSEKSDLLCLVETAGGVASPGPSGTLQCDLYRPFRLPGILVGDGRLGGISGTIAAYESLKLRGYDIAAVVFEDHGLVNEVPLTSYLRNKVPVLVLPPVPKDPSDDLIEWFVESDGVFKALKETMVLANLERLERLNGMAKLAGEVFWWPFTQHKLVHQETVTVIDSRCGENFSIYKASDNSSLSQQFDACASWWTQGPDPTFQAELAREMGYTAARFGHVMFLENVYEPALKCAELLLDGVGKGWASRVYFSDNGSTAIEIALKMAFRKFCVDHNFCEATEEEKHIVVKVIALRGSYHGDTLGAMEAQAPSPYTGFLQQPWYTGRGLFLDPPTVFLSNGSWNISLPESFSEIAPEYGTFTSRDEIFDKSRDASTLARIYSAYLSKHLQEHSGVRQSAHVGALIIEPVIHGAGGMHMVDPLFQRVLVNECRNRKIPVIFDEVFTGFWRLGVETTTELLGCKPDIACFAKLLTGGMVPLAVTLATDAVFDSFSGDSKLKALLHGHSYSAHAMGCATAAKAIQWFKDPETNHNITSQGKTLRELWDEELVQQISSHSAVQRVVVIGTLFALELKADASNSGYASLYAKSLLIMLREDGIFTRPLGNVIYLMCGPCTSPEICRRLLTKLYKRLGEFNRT
Procedure, shortened: (§5)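 His-tagged BIO3-BIO1 mutants expressed in E. coli and purified by IMAC and SEC. 50 nM enzyme preincubated with herbicide 10 min at 20 °C, then reacted 75 min with 20 μM KAPA and 100 μM spermidine in EPPS pH 8.6. DAPA derivatised with o-phthalaldehyde, fluorescence read at ex 410/em 470 nm; IC50 by non-linear regression.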

[6] = biological target: T2, Arabidopsis thaliana BioDA variant enzymes (Arabidopsis thaliana, UniProt B0F481, C388T); assay: biochemical
T2 construct: with the predicted N-terminal mitochondrial transit peptide removed; 6xHis-tag (N); thrombin cleavage site (N); made in house; host or cells: E. coli BL21 (DE3) bioA
T2 sequence (B0F481 24-833 C388T): as the sequence (B0F481 24-833 P421L) above, with C365T, L398P counted along it
Procedure, shortened: as §5

[7] = biological target: T3, Arabidopsis thaliana BioDA variant enzymes (Arabidopsis thaliana, UniProt B0F481, W391L); assay: biochemical
T3 construct: with the predicted N-terminal mitochondrial transit peptide removed; 6xHis-tag (N); thrombin cleavage site (N); made in house; host or cells: E. coli BL21 (DE3) bioA
T3 sequence (B0F481 24-833 W391L): as the sequence (B0F481 24-833 P421L) above, with W368L, L398P counted along it
Procedure, shortened: as §5

[8] = biological target: T4, Arabidopsis thaliana BioDA variant enzymes (Arabidopsis thaliana, UniProt B0F481, W392G); assay: biochemical
T4 construct: with the predicted N-terminal mitochondrial transit peptide removed; 6xHis-tag (N); thrombin cleavage site (N); made in house; host or cells: E. coli BL21 (DE3) bioA
T4 sequence (B0F481 24-833 W392G): as the sequence (B0F481 24-833 P421L) above, with W369G, L398P counted along it
Procedure, shortened: as §5

[9] = biological target: T5, Arabidopsis thaliana BioDA variant enzymes (Arabidopsis thaliana, UniProt B0F481, F348C); assay: biochemical
T5 construct: with the predicted N-terminal mitochondrial transit peptide removed; 6xHis-tag (N); thrombin cleavage site (N); made in house; host or cells: E. coli BL21 (DE3) bioA
T5 sequence (B0F481 24-833 F348C): as the sequence (B0F481 24-833 P421L) above, with F325C, L398P counted along it
Procedure, shortened: as §5

Wildtype Samsun tobacco = assay: Visual herbicide damage score on wild-type tobacco plants after spraying; type: in vivo; conditions: for percentage of damage: 600 gai/ha, one WT plant
From the text: as §1
as §2, with “A” for “Herbicidal damage was visually assessed across the population and a herbicide damage score given at 7, 14 and 21 days. A”, “control. […]” for “control.”

Row | Compound | percentage of damage [1] | percentage of damage [2] [%] | percentage of damage ([3]; 14 DAT) [%] | percentage of damage ([3]; 21 DAT) [%] | percentage of damage [4] [%] | IC50 [5] [µM] | IC50 [6] [µM] | IC50 [7] [µM] | IC50 [8] [µM] | IC50 [9] [µM] | percentage of damage (Wildtype Samsun tobacco; 7 DAT) | percentage of damage (Wildtype Samsun tobacco; 14 DAT) | percentage of damage (Wildtype Samsun tobacco; 21 DAT) | growth of representative wild type tobacco plant after treatment (photograph, FIG. 6) (Wildtype Samsun tobacco; compound L 600 gai/ha, 28 days post treatment, compared to Event 8307 (pBin TMV EcBioA) and Event 8402 (pBin TMV MTP EcBioA))
1 | CCOC(=O)c1nn(-c2ccc3c(c2)OC(F)(F)C(F)(F)O3)c2cccc(C(C)=O)c2c1=O [Compound A, ethyl 5-acetyl-4-oxo-1-(2,2,3,3-tetrafluoro-1,4-benzodioxin-6-yl)cinnoline-3-carboxylate] | 5% and 0% and 2% |  |  |  |  |  |  |  |  |  |  |  |  | 
2 | CCn1c(Cn2ccc(C(F)(F)F)n2)cc(=O)c(C(=O)O)c1-c1ccc(Cl)c(Cl)c1 [Compound L, 2-(3,4-dichlorophenyl)-1-ethyl-4-oxo-6-[[3-(trifluoromethyl)pyrazol-1-yl]methyl]pyridine-3-carboxylic acid] |  | 10 | 70 | 80 | 10 | 0.687 | 0.092 | 16.3 | 17.7 | 77.6 | 55% and 40% and 45% and 50% | 80% (2×) and 85% and 75% | 90% and 75% and 85% | significantly stunted growth
